Experimental data: PMC6778934, “^99mTc-Labeled LyP-1 for SPECT Imaging of Triple Negative Breast Cancer” (Contrast Media & Molecular Imaging, 2019)

Test system: 4T1 cells
Type: cell-based, murine
Description: 4T1 murine breast carcinoma cells were purchased from American Type Culture Collection (Manassas, VA, USA) and maintained in RPMI-1640 supplemented with 10% fetal bovine serum (FBS, Gibco, Grand Island, NY, USA). To produce breast cancer models, 4-week-old female BALB/c nude mice were purchased from the Shanghai Laboratory Animal Center at the Chinese Academy of Sciences (Shanghai, China) and subcutaneously injected in the left lateral thigh with 1 × 10^6 tumor cells suspended in 100 μL of PBS. All animal experiments were performed according to protocols established by the Ethics Committee of Shanghai General Hospital. To assess potential cytotoxic effects of LyP-1 or ARAL, cell proliferation assays were conducted with CCK-8 (Dojindo Technologies, Kumamoto, Japan). 4T1 cells (1 × 10^4 per well) were plated on 96-well plates in the RPMI-1640 medium with 10% FBS. After 24 h, the medium was replaced by 100 μL of fresh containing different concentrations of LyP-1 or ARAL (0.1, 1, 5, 10, 20, or 50 μM) for another 24 h. Then, 10 μL CCK-8 was added for 2 h. Absorbance was measured at 450 nm using a Varioskan Flash multimode microplate reader (Thermo Fisher Scientific, Waltham, MA, USA).

C[C@@H](O)[C@@H]1NC(=O)[C@H](CCCNC(=N)N)NC(=O)[C@H](CCCCN)NC(=O)[C@H](CC(N)=O)NC(=O)CNC(=O)[C@@H](N)CSSC[C@@H](C(=O)O)NC(=O)CNC(=O)[C@H](CCCNC(=N)N)NC1=O [LyP-1]
cell viability compared with that for 0.1–10 μM: slightly but not significantly lower
